According to US20130136778A1, “PTEROSTILBENE (PTER) FOR USE IN THE PREVENTION AND/OR TREATMENT OF SKIN DISEASES, DAMAGES OR INJURIES” (GREEN MOLECULAR, S.L., priority 2009, published 2013):

Tests used:
Assay type in all cases: in vivo
SKH-1 mice [1] = assay: Anatomopathological study of the skin after chronic exposure to UV-B; details: chronic UV-B irradiation
Protocol: Histochemical techniques were used to study the skin tissues of the different procedures, at a microscopic level.
The tissues were fixed in 4% formaldehyde in PBS over 24 h at 22° C. After the tissues were fixed, they had to be dehydrated in large amounts of ethanol and placed in a hydrophobic and xylene mixture to allow the paraffin to penetrate the tissues to provide sufficient consistency for slicing them thinly in a microtome.
The samples in paraffin were processed with the microtome obtaining slices of about 5-10 μm. The samples were spread over a drop of gelatin at 37° C. and were collected in gelatinized slides.
The protocol used for staining the samples was: • 1. Incubation with Mayer's Hematoxylin for 10-15 minutes. • 2. Wash under running water until bluish. • 3. Incubate with Eosin (1%) for 2-4 minutes. • 4. Eliminate the remaining eosin in ethanol 70° • 5. Dehydration. • 6. Rinse with xylol for 3 minutes. • 7. Let the trays dry out on the stove at 37°.
In relation to the histopathological exam of the tumors induced by chronic irradiation to UV in the SKH1 mice, it was confirmed that the treatment with UV-B produced a strong acanthosis due primarily to the inflammatory process; this gave way to the first signs of tumors, mostly of carcinoma type and not melanoma.
Both the reference compounds and the ones subject of this study (10 μmoles/mouse of polyphenols, or 200 μl of each photoprotector) were applied to the back of the mice for 20 minutes prior to their exposure to UV-B. Medium of groups of 20 mice. Every parameter was measured according to the degree of seriousness (+) light-(+++) serious.

SKH-1 mice [2] = assay: Skinfold thickness (edema) after acute UV-B exposure of 360 mJ/cm2
Protocol: UVB Acute exposure protocols were used: Mice underwent a single exposure of 360 mJ/cm2. The study was conducted at 24 hours after exposure. This protocol was used to evaluate the photoprotective effect of the compounds studied. With the same acute-phase protocol mice from all groups were irradiated. Subsequently mice remained in the animal storage area for a week to see the evolution of the inflammatory response and edema. For the UVB exposure studies (chronic or acute) a topical administration to the back of the mouse was conducted. The commercial sunscreens were applied directly on the mouse. The polyphenols in the study were administered in a liposomal preparation diluted 1:1 with Carbopol polymer which will be the vehicle for these liposomes. Each polyphenol dose administered was 10 μmol/mouse, as free acid. • 1. Edema formation: skinfold thickness was determined with a caliper 24 hours after the first exposure. • 2. Study of the thickness of the epidermis after exposure to acute irradiation (360 mj/cm^2 24 h hours and 7 days after irradiation). • 3. Histological studies: measuring, in the pictures obtained from histological sections, the thickness of the epidermis. With the purpose of assessing the effects of the photoprotective compounds studied, female mice SKH-1 of between 6-8 weeks old were subjected to a single exposure of 360 mJ/cm. For the ultraviolet B (UVB) irradiation exposure, a camera specifically prepared, available at our laboratory was used (Crosslinker; Bio-Link BLX 254) equipped with 5 tubes that produce 80% of the UVB radiation, with a maximum emission of 312 nm. The two protocols of UV-B exposure used were: • Intense exposure after a single exposure of 360 mJ/cm^2. The study was carried out 24 hours after the exposure. This protocol was used to assess the photoprotective effects of the compounds studied. • Intense exposure after a single exposure of 360 mJ/cm^2. The study was carried out 1 week after the exposure. The mice were kept in the shed for a week to observe the evolution of the inflammatory and edematous response. As reference, several commercial photoprotective products were used ([…] Heliocare). The reference compounds as well as the products object of this study, were applied on the back of the mice for 20 minutes after or 20 minutes before the irradiation with UV-B, to determine if the reaction observed was due to an effect of the solar filter or not. […] The skinfold was measured by making a fold on the skin from the back of the mice, from the axillae to the hips; the fold was measured with a vernier caliper. The increase in the fold was calculated by the difference between the initial point, before the effects of the reaction, and the thickness in each point.

SKH-1 mice [3] = assay: Thickness of the epidermis after acute UV-B exposure of 360 mJ/cm2
Protocol: UVB Acute exposure protocols were used: Mice underwent a single exposure of 360 mJ/cm2. The study was conducted at 24 hours after exposure. This protocol was used to evaluate the photoprotective effect of the compounds studied. With the same acute-phase protocol mice from all groups were irradiated. Subsequently mice remained in the animal storage area for a week to see the evolution of the inflammatory response and edema. • 1. Edema formation: skinfold thickness was determined with a caliper 24 hours after the first exposure. • 2. Study of the thickness of the epidermis after exposure to acute irradiation (360 mj/cm^2 24 h hours and 7 days after irradiation). • 3. Histological studies: measuring, in the pictures obtained from histological sections, the thickness of the epidermis. For studies of acute exposure skin samples were taken from the back of the mouse. These samples were fixed with 4% paraformaldehyde (24 hours) and embedded in paraffin. Following cutting the samples were stained with hematoxylin and eosin. The two protocols of UV-B exposure used were: • Intense exposure after a single exposure of 360 mJ/cm^2. The study was carried out 24 hours after the exposure. This protocol was used to assess the photoprotective effects of the compounds studied. • Intense exposure after a single exposure of 360 mJ/cm^2. The study was carried out 1 week after the exposure. The mice were kept in the shed for a week to observe the evolution of the inflammatory and edematous response. At 24 hours or 1 week after the administration of the different treatments the mice were sacrificed and their skin fixed with 4% PFA. To measure the thickness of the epidermis to evaluate possible hyperplasia, a computer program was used, Image J, calibrated with the assistance of a Neubauer camera which allowed the measuring of the epidermis. Results obtained were statistically analyzed by ANOVA and contrasted by the Tukey test and grouped according to the significant differences. […] Therefore PTER alone could be used efficiently in the prevention of skin diseases, injuries or damages induced by ultraviolet B radiation. The evaluation of skin thickness was carried out by using computer software (IMAGE J). Results obtained by ANOVA were contrasted by the Tukey test and grouped according to the significant differences. […] Therefore PTER separately could be used efficiently in the prevention of skin diseases, damages or injuries induced by ultraviolet B radiation.

Compound: COc1cc(/C=C/c2ccc(O)cc2)cc(OC)c1 [PTER, 3,5-dimethoxy-4′-hydroxy-trans-resveratrol]
- anti-inflammatory and anti-tumor formation effect, histopathological exam (SKH-1 mice [1]): the compound with greatest benefits
- formation of the edema (thickness of the skin) after severe UV-B exposure (SKH-1 mice [2]; FIG. 1): the formation of the edema was reduced
- skinfold thickness 24 h after irradiation, applied after UVB (SKH-1 mice [2]; FIG. 1, applied 20 min after): more efficient for the treatment of skin diseases, damages or injuries due to radiation, when applied after the exposure to UVB, than the commercial creams (Vichy, Heliocare and Isdin) and that RESV
- skinfold thickness 24 h after irradiation, applied before UVB (SKH-1 mice [2]; FIG. 1, applied 20 min before): more efficient as photoprotector, when applied before the exposure to UVB, than the commercial creams (Vichy, Heliocare and Isdin) and that RESV
- thickness of the epidermis 24 hours after irradiation, applied after UVB (SKH-1 mice [3]; FIG. 2): more efficient in the treatment of skin diseases, injuries or damages caused by radiation, when applied after the exposure to UVB, than the commercial creams (Vichy, Heliocare and Isdin)
- thickness of the epidermis 24 hours after irradiation, applied before UVB (SKH-1 mice [3]; FIG. 2): more efficient as photoprotector, when applied before the exposure to UVB, than the commercial creams (Vichy, Heliocare and Isdin)
- thickness of the epidermis 24 hours after irradiation (before or after application) (SKH-1 mice [3]; FIG. 2, versus group treated only with UV-B): produced better results than even commercial photoprotectors and Resveratrol
- thickness of the epidermis 1 week after irradiation, applied after UVB (SKH-1 mice [3]; FIG. 3): more efficient in the treatment of skin diseases, injuries or damages caused by radiation, when applied after the exposure to UVB, than the commercial creams (Vichy, Heliocare and Isdin)
- thickness of the epidermis 1 week after irradiation, applied before UVB (SKH-1 mice [3]; FIG. 3): more efficient as photoprotector, when applied before the exposure to UVB, than the commercial creams (Vichy, Heliocare and Isdin)
